In brackets after ≈: the same amount, converted by molar mass.
How the values were obtained:
[1] = test system: Mexican bean beetle (Epilachna varivestis); assay: Mexican Bean Beetle Test; format: in vivo; conditions: 600 grams per hectare, 48 hours after infestation, treated lima bean leaf
Description: (§1) The test solution was sprayed using a moving single boom tee jet sprayer at a volume equivalent to 935 liters/ha onto a petri dish containing a lima bean (Phaseolus limensis var: Woods' Prolific) leaf placed on a moistened piece of filter paper. After the leaf dried it was infested with ten beetles (Epilachna varivestis) and covered. The percent control was evaluated 48 hours after infestation.

[2] = test system: Southern Root-Knot Nematode Meloidogyne incognita; assay: Nematode Screening Test; format: in vivo; conditions: 11400 grams per hectare; soil, cucumber roots, 21 days
Description: For the nematode test, soil was homogeneously inoculated with nematode eggs (Southern Root-Knot Nematode Meloidogyne incognita) at a rate of 20000 eggs per 200 milliliters (ml) of soil extracted from a macerated blend of tomato roots heavily knotted with the root-knot nematode. Ten ml of the 150 ppm test solution were added to 200 ml of the inoculated soil in a 16 oz. jar to give a concentration by volume of 11400 grams per hectare (gm/ha). […] The jars were shaken to ensure thorough mixing, immediately uncapped, and allowed to air for two hours. The soil was placed into a 7.5 cm plastic pot and three cucumber (Cucumis sativus) seeds were planted. The pots were held under greenhouse conditions for 21 days. Upon termination, the cucumber roots were examined for the presence of knots. Results are summarized in Table 2 and are expressed as percent knot reduction.

[3] = test system: southern corn rootworm, Diabrotica undecimpunctata howardi; assay: Corn Rootworm Screening Test; conditions: in Zea mays, soil, 240 h, read-out: Percent Control of Corn Rootworm
[4] = test system: Haemonchus contortus (McMaster, benzimidazole susceptible); assay: Anthelmintic Test, inhibition of larval development; conditions: 144 h, read-out: MIC (minimum inhibitory concentration)
Description: (§2) Compounds were tested as inhibitors of larval development in Haemonchus contortus (McMaster, benzimidazole susceptible) isolates, Trichostrongylus colubriformis (McMaster susceptible) and Ostertagia circumcincta (Glenlothian susceptible).
(§3) Eggs of the parasitic helminths, isolated from sheep feces, were applied to wells of a microtiter plate which contained a gradient of concentrations of the test compound in nutrient solution. After the eggs hatched, L1 larvae developed through to the L3 stage over 6 days. Development was inhibited and a minimum inhibitory concentration in ppm was determined. See for example, E. Lacey et al p 177-184 in: Resistance of Parasites to Antiparasitic Drugs, edited by J. C. Boray MSD AGVET, Rahway, N.J.

[5] = test system: Ostertagia circumcincta (Glenlothian susceptible); assay: as above; conditions: Teladorsagia circumcincta, 144 h, read-out: MIC (minimum inhibitory concentration)
Description: as §2, §3

[6] = test system: Trichostrongylus colubriformis (McMaster susceptible); assay: as above; conditions: 144 h, read-out: MIC (minimum inhibitory concentration)
Description: as §2, §3

[7] = test system: Potato leafhopper (Empoasca fabae); assay: Potato Leafhopper Test; format: in vivo; conditions: 600 grams per hectare; 72 hours after infestation; treated fava bean leaf; read-out: Percent Control of Potato leaf hopper
Description: as §1, with “fava” for “lima”, “(Vicia faba)” for “(Phaseolus limensis var: Woods' Prolific)”, “five mixed nymphs (Empoasca fabae)” for “ten beetles (Epilachna varivestis)”, “72” for “48”

Structure (SMILES)	percent control at 600 g/ha [1]	Percent Control of Root Knot Nematode (percent knot reduction) [2]	mortality at 11400 g/ha, 11400 g/ha [3]	MIC [4]	MIC [5]	MIC [6]	mortality at 600 g/ha, 600 g/ha [7]
CCOP(=S)(OCC)N(NC(=O)C(Cl)(Cl)Cl)C(C)(C)C [Compound 1, 1-(O,O-diethylthiophosphoryl)-1-tertbutyl-2-trichloroacetyl Hydrazine]	100%	98%	100%				
CCCOP(=S)(OCCC)N(NC(=O)C(Cl)(Cl)Cl)C(C)(C)C [Compound 2]	100%	0%	87%				
CCCOP(=S)(OCC)N(NC(=O)C(Cl)(Cl)Cl)C(C)(C)C (centres unmarked) [Compound 3]	100%	74%	98%				
CCOP(=S)(OCC(C)(C)C)N(NC(=O)C(Cl)(Cl)Cl)C(C)(C)C (centres unmarked) [Compound 4]	100%	0%	0%				
CCOP(=S)(OC(C)CC)N(NC(=O)C(Cl)(Cl)Cl)C(C)(C)C (centres unmarked) [Compound 5]	100%	0%	96%				
CCOP(=S)(OC(C)C)N(NC(=O)C(Cl)(Cl)Cl)C(C)(C)C (centres unmarked) [Compound 6]	100%	54%	100%				
CCOP(=S)(OCC)N(NC(=O)C(F)(Cl)Cl)C(C)(C)C [Compound 7]	80%	0%	96%				
CCOP(=S)(OCC)N(NC(=O)C(Br)(Br)Br)C(C)(C)C [Compound 8]	30%	98%	0%				
COP(=S)(OC)N(NC(=O)C(Cl)(Cl)Cl)C(C)(C)C [Compound 9]	100%	100%	100%				
CCOP(=S)(OCC)N(NC(=O)C(Cl)Cl)C(C)(C)C [Compound 10, 1-(O,O-diethylthiophosphoryl)-1-tertbutyl-2-dichloroacetyl Hydrazine]	100%	100%	0%	1.56 µg/mL (≈ 4.44 µM)	1.56 µg/mL (≈ 4.44 µM)	12.5 µg/mL (≈ 35.6 µM)	
CCOP(=S)(OCC)N(NC(=O)CCl)C(C)(C)C [Compound 11, 1-(O,O-diethylthiophosphoryl)-1-tertbutyl-2-monochloroacetyl Hydrazine]		43%	0%				100%
CCOP(=S)(OCC)N(NC(=O)C(F)(F)F)C(C)(C)C [Compound 12]		0%	100%				100%
COP(=S)(OC)N(NC(=O)C(Cl)Cl)C(C)(C)C [Compound 13]		100%	0%				100%
COP(=S)(OC)N(NC(=O)CCl)C(C)(C)C [Compound 14]		0%	0%				100%
CCOP(=S)(OCC)N(NC(=O)C(F)(F)Cl)C(C)(C)C [Compound 15]		0%	0%				100%
COCCOP(=S)(OCCOC)N(NC(=O)C(Cl)(Cl)Cl)C(C)(C)C [Compound 16]		0%	66%				100%
COCCOP(=S)(OCCOC)N(NC(=O)C(Cl)Cl)C(C)(C)C [Compound 17]		0%	0%				60%
CCOP(=S)(OCCOC)N(NC(=O)C(Cl)(Cl)Cl)C(C)(C)C (centres unmarked) [Compound 18]		25%	0%				100%
CCOP(=S)(OCCOC)N(NC(=O)C(Cl)Cl)C(C)(C)C (centres unmarked) [Compound 19]		90%	0%				100%
CCOP(=S)(c1ccccc1)N(NC(=O)C(Cl)(Cl)Cl)C(C)(C)C (centres unmarked) [Compound 22]			0%				100%
